Experimental data reported in patent US20060009475A1, “Quinazolinone compounds in combined modalities for improved cancer treatment” (priority 2001, published 2006).
“And” between values parts separate entries of the source, which are not always exact repeats. Identical values can stand only once.

Key:
[1] = system: rat mesangial cells (RMC); experiment: Cell cycle analysis of mesangial cells by propidium iodide FACScan; type: cell-based; conditions: 150 ng/ml halofuginone, 24 hours, 10% FCS
Description: Further experiments were conducted to determine whether halofuginone arrests mesangial cell proliferation at a specific phase of the cell cycle.
For this purpose sub confluent RMC's were kept in 10% FCS in the absence or presence of 150 ng/ml halofuginone for 24 hours. The cells were then harvested, stained with propidium iodide and analyzed by FACScan. The percentage of cells progressing into G2/M phase was reduced by halofuginone from 20% to 7%. The percentage of cells in G0/G1 was increased from 38% in the absence of halofuginone to 65% in the presence of halofuginone.

[2] = system: radiation-induced fibrosis (leg contraction); experiment: Leg contraction model of radiation-induced fibrosis; type: in vivo, mice
Description: Mice were injected intraperitoneally once daily with 1-5 μg/mouse of halofuginone, for a period of 4 months.
The right leg only of each animal was radiated with 35Gy or 45Gy. […] Measurements were taken within time periods of 2 to 4 months after radiation.

[3] = system: pancreatic cancer cell lines 3602 Xrt and 3602 Zyrd/Xrt; experiment: Radiation survival of pancreatic cancer cell lines pre-treated with halofuginone; type: cell-based, human; conditions: 250 nM halofuginone for 24 hr, then radiated with 0-8 Gy
Description: Two pancreatic cancer cell lines: 3602 Xrt and 3602 Zyrd/Xrt were incubated with or without 250 nM halofuginone for 24 hr, than radiated with 0-8 Gy. Survival fraction of the cell was determined.

[4] = system: rabbit aortic smooth muscle cells (SMC); experiment: [3H]-thymidine incorporation / cell cycle arrest in serum-stimulated smooth muscle cells; type: cell-based
Description: Experiments were conducted to determine the specific phase of the cell cycle in which SMC treated with halofuginone were arrested.
As determined by [^3H]-thymidine incorporation, addition of 10% FBS to growth-arrested, quiescent SMC promotes entry of the cells to S phase after a G1 period of 16 hours. Maximal DNA synthesis was seen 20 hours after serum-stimulation (FIG. 1).
It was next determined whether halofuginone arrested proliferation at a specific stage in the cell cycle. For these experiments, quiescent SMCs were kept in 10% FBS plus 10^−7 M halofuginone for 24 hours. The cultures were then washed and placed in 10% FBS with [^3H]-thymidine and without halofuginone. At various times after halofuginone removal, the cells were harvested and thymidine incorporation was determined. When halofuginone-treated cells were released from growth-arrest, there was a lag of 4-6 hours before initiation of DNA synthesis, which peaked by 10 hours (FIG. 1).

U266 cells = experiment: Cell cycle analysis of multiple myeloma cells by flow cytometry; type: cell-based; conditions: 48 hours, different concentrations
Description: Multiple Myeloma (MM) cell line U266B1 was purchased from ATCC (TIB-196).
Cells (10^6) were incubated for 48 hours with different concentrations of halofuginone. The cells were permeabilized with 70% ethanol in PBS for 30 minutes at 4° C., and then incubated with 0.5 ml of a 50 μg/ml Propidium Iodide solution containing 20 U/ml RnaseA for 30 minutes. Cells were analyzed by flow cytometry.

[5] = system: human T98G glioblastoma (ic tumor); experiment: Human T98G glioblastoma implanted intracranially, survival (increase-in-lifespan); conditions: BCNU 15 mg/kg ip, days 7, 9, 11, alone
Description: Halofuginone was tested in the human T98G glioblastoma xenograft implanted subcutaneously or intracranially. Mice were implanted with the human T98G glioblastoma tumor cells subcutaneously in a thigh or intracranially.
Halofuginone was administered orally by gavage at dose levels of 0.1,0.2, and 0.5 mg/kg/day, once per day, on days 4 through 34 days post tumor implantation. Each group contained 5 mice.
The endpoint for the subcutaneous tumor was tumor growth delay while the endpoint for the intracranial tumor was increase-in-lifespan (survival).

[6] = system: human T98G glioblastoma xenograft (sc tumor); type: in vivo, mice; conditions: BCNU 15 mg/kg ip, days 7, 9, 11, alone
Description: Each group contained 5 mice.

[7] = cited from earlier work
[8] = 24 hours 10^-7 M halofuginone + 10% FBS, then washed

O=C(CC1NCCC[C@H]1O)Cn1cnc2cc(Br)c(Cl)cc2c1=O (stereo in doubt) [halofuginone, 7-bromo-6-chloro-3-[3-(3-hydroxy-2-piperidinyl)-2-oxopropyl]-4(3H)-quinazolinone]
percentage of cells in G0/G1 [1]: 65%
percentage of cells progressing into G2/M phase [1]: 7%
leg length difference between the right and left leg ([2]; 1-5 μg/mouse ip once daily, 35Gy or 45Gy, 2 and 4 months post radiation): dramatic decrease
condition of irradiated leg (stiffness, skin) ([2]; versus mice that did not receive halofuginone): definitely less stiff, and the skin was less dry
decrease in the survival fraction [3]: approximately 50%
[3H]-thymidine incorporation ([4]; 10^-7 M halofuginone added with 10% FBS to quiescent SMC): only low levels
lag before initiation of DNA synthesis after release from growth-arrest [4, 8]: 4 to 6 h
time of peak DNA synthesis after halofuginone removal [4, 8]: 10 h
cell cycle phase of arrest ([4]; continual presence of halofuginone): reversibly arrest at late G1 phase
number of cells arrested in G1 phase (U266 cells): elevation

O=NN(CCCl)C(=O)NCCCl [BCNU, 1,3-bis(2-chloroethyl)-1-nitrosourea]
SURVIVAL Days (ic tumor) [5]: 97 ± 21 days
TUMOR GROWTH DELAY Days (sc tumor) [6]: 3.8 days and 3.9 ± 0.4 days

Bleomycin
death of patients associated with pulmonary fibrosis [7]: 1% to 2
treated patients with induced pulmonary fibrosis [7]: 10% to 30
